These compounds were tested on Ras Initiative (RI) KRAS G12C cells (assay: phospho-ERK HTRF assay in RI KRAS G12C cells). Conditions: 11-point dose response starting at 2,500 nM, 4 hours or 16 hours treatment, read-out: pERK (RI).
Format: cell-based
Procedure: KRAS G12C mutant lines, NCI H358 (ATCC, CRL-5807), and Ras Initiative (RI) KRAS G12C were cultured according to published protocols and maintained at 37° C. in 5% CO2. The phospho-ERK HTRF assay was executed following provider's protocol (CisBio #64AERPEH). NCI-H358 or RI KRAS G12C cells were plated at a density of 50,000 cells per well in a 96-well plate (Corning #3903) in respective medias (for NCI-H358, RPMI+10% FBS+1% Pen/Strep, and for RI KRAS G12C, DMEM+10% FBS+1% Pen/Strep+4 μg/mL Blasticidin) and maintained at 37° C. in 5% CO2. Cells were allowed to adhere overnight and treated the following day with a Tecan D300e Digital Dispenser (Tecan Group Ltd., Switzerland) using an 11-point dose response starting at 2,500 nM of exemplified compounds followed by sequential 1:3 dilutions for either 4 hours or 16 hours. Following compound treatment, the cells were washed once with ice-cold PBS. Cells were lysed by adding 50 μL of lysis buffer (1×) supplemented with 1× Pierce Halt Protease and Phosphatase inhibitor and incubated for 30 minutes at 4° C. with shaking. After lysis, 16 μL of cell lysate from the 96-well cell-culture plate was transferred to a 384-well plate (Perkin Elmer #6007290). The premixed antibody solution was prepared by mixing (vol/vol) advanced phospho-ERK1/2 d2 antibody and advanced phospho-ERK1/2 Eu Cryptate antibody. The premixed antibody solution (4 μL) was added to the detection plate containing cell lysate. The detection plate was incubated overnight at 4° C., the HTRF signal was read the next day by using either a Spectramax M5 or Spectramax i3 microplate reader (Molecular Devices, San Jose, CA, USA), and data was processed according to manufacturer's protocol.
Examples were evaluated according to the above p-ERK assay

IC50 | Structure (SMILES)
68 nM | C=CC(=O)N1[C@H](C)CN(c2nc(=O)n3c4c(c(-c5ccc(F)c6sc(=O)[nH]c56)c(C(F)(F)F)cc24)SC[C@@H]3COC)C[C@@H]1C [Example 6, (3S,10S)-7-((3S,5R)-4-acryloyl-3,5-dimethylpiperazin-1-yl)-10-(7-fluoro-2-oxo-2,3-dihydrobenzo[d]thiazol-4-yl)-3-(methoxymethyl)-9-(trifluoromethyl)-2,3-dihydro-5H-[1,4]thiazino[2,3,4-ij]quinazolin-5-one]
> 2500 nM | C=CC(=O)N1[C@H](C)CN(c2nc(=O)n3c4c(c(-c5ccc(F)c6[nH]c(=O)[nH]c56)c(C(F)(F)F)cc24)SC[C@@H]3COC)C[C@@H]1C [Example 2, (3S,10S)-7-((3S,5R)-4-acryloyl-3,5-dimethylpiperazin-1-yl)-10-(7-fluoro-2-oxo-2,3-dihydro-1H-benzo[d]imidazol-4-yl)-3-(methoxymethyl)-9-(trifluoromethyl)-2,3-dihydro-5H-[1,4]thiazino[2,3,4-ij]quinazolin-5-one]
> 2500 nM | C=CC(=O)N1CCN(c2nc(=O)n3c4c(c(-c5ccc(F)c6[nH]c(=O)[nH]c56)c(C(F)(F)F)cc24)SCC2(CCC2)C3)CC1 [Example 5, 8′-(4-acryloylpiperazin-1-yl)-11′-(7-fluoro-2-oxo-2,3-dihydro-1H-benzo[d]imidazol-4-yl)-10′-(trifluoromethyl)-2′H,4′H,6′H-spiro[cyclobutane-1,3′-[1,4]thiazepino[2,3,4-ij]quinazolin]-6′-one]
18 nM | C=CC(=O)N1CCN(c2nc(=O)n3c4c(c(-c5ccc(F)c6sc(=O)[nH]c56)c(C(F)(F)F)cc24)SC[C@@H]3COC)CC1 [Example 7, (3S,10S)-7-(4-acryloylpiperazin-1-yl)-10-(7-fluoro-2-oxo-2,3-dihydrobenzo[d]thiazol-4-yl)-3-(methoxymethyl)-9-(trifluoromethyl)-2,3-dihydro-5H-[1,4]thiazino[2,3,4-ij]quinazolin-5-one]
222 nM | C=CC(=O)N1CCN(c2nc(=O)n3c4c(c(-c5ccc(F)c6sc(=O)[nH]c56)c(C(F)(F)F)cc24)SCC2(CCC2)C3)CC1 [Example 9, 8′-(4-acryloylpiperazin-1-yl)-11′-(7-fluoro-2-oxo-2,3-dihydrobenzo[d]thiazol-4-yl)-10′-(trifluoromethyl)-2′H,4′H,6′H-spiro[cyclobutane-1,3′-[1,4]thiazepino[2,3,4-ij]quinazolin]-6′-one]
> 2500 nM | C=CC(=O)N1[C@H](C)CN(c2nc(=O)n3c4c(c(-c5ccc(F)c6[nH]c(=O)[nH]c56)c(C(F)(F)F)cc24)SCC2(CCC2)C3)C[C@@H]1C [Example 4, 8′-((3S,5R)-4-acryloyl-3,5-dimethylpiperazin-1-yl)-11′-(7-fluoro-2-oxo-2,3-dihydro-1H-benzo[d]imidazol-4-yl)-10′-(trifluoromethyl)-2′H, 4′H,6′H-spiro[cyclobutane-1,3′-[1,4]thiazepino[2,3,4-ij]quinazolin]-6′-one]
171 nM | C=CC(=O)N1[C@H](C)CN(c2nc(=O)n3c4c(c(-c5ccc(F)c6sc(=O)[nH]c56)c(C(F)(F)F)cc24)SCC2(CCC2)C3)C[C@@H]1C [Example 8, 8′-((3S,5R)-4-acryloyl-3,5-dimethylpiperazin-1-yl)-11′-(7-fluoro-2-oxo-2,3-dihydrobenzo[d]thiazol-4-yl)-10′-(trifluoromethyl)-2′H,4′H,6′H-spiro[cyclobutane-1,3′-[1,4]thiazepino[2,3,4-ij]quinazolin]-6′-one]
> 2500 nM | C=CC(=O)N1[C@H](C)CN(c2nc(=O)n3c4c(c(-c5ccc(F)c6[nH]c(=O)[nH]c56)c(C(F)(F)F)cc24)SC[C@@H](OC)C3)C[C@@H]1C [Example 1, (3S)-8-((3S,5R)-4-acryloyl-3,5-dimethylpiperazin-1-yl)-11-(7-fluoro-2-oxo-2,3-dihydro-1H-benzo[d]imidazol-4-yl)-3-methoxy-10-(trifluoromethyl)-3,4-dihydro-2H,6H-[1,4]thiazepino[2,3,4-ij]quinazolin-6-one]
> 2500 nM | C=CC(=O)N1CCN(c2nc(=O)n3c4c(c(-c5ccc(F)c6[nH]c(=O)[nH]c56)c(C(F)(F)F)cc24)SC[C@@H]3COC)CC1 [Example 3, (3S,10S)-7-(4-acryloylpiperazin-1-yl)-10-(7-fluoro-2-oxo-2,3-dihydro-1H-benzo[d]imidazol-4-yl)-3-(methoxymethyl)-9-(trifluoromethyl)-2,3-dihydro-5H-[1,4]thiazino[2,3,4-ij]quinazolin-5-one]
46 nM | C=CC(=O)N1[C@H](C)CN(c2nc(=O)n3c4c(c(-c5ccc(F)c6sc(=O)n(C)c56)c(C(F)(F)F)cc24)SC[C@@H]3COC)C[C@@H]1C [Example 10, (3S)-7-((3S,5R)-4-acryloyl-3,5-dimethylpiperazin-1-yl)-10-(7-fluoro-3-methyl-2-oxo-2,3-dihydrobenzo[d]thiazol-4-yl)-3-(methoxymethyl)-9-(trifluoromethyl)-2,3-dihydro-5H-[1,4]thiazino[2,3,4-ij]quinazolin-5-one]

Each compound was assayed against T1, KRAS 4B G12C protein (Homo sapiens, UniProt P01116, G12C) (assay: KRAS G12C covalent adduct formation (CAF) assay, LC-MS). Conditions: 10 μM compound, 5 μM protein, 22° C.
T1 construct: made in house; host or cells: E. coli BL21
Format: binding
Procedure: This Example provides a protocol for assessing covalent adduct formation (CAF) between the compounds of Formula (I) and KRAS.
In vitro covalent adduct formation assay: Covalent adduct formation (CAF) reactions between Cys12 of the KRAS 4B G12C protein and the compounds disclosed herein were measured in vitro using liquid chromatography-mass spectrometry (LC-MS).
Recombinant Human KRAS 4B protein containing the G12C mutation was used in compound screening experiments. This protein contained 188 amino acids in total, including an N-terminal 6-Histidine tag, followed by a Tobacco Etch Virus (TEV) tag, followed by residues 1-169 of the native KRAS 4B sequence. The exact mass of the protein is 21,310 Da as determined by mass spectrometry. […]
The recombinant protein is expressed in E. coli BL21 cells and purified using affinity chromatography via a Ni-NTA column. […] The intact mass of the protein samples was measured by LC-MS using a QExactive+ mass spectrometer (Thermo Scientific). An amount of 500 ng total protein was injected onto a C8 reverse phase column, eluted with a seven-minute gradient of 30%-90% acetonitrile/0.1% formic acid, and analyzed for intact mass by the mass spectrometer. Adducts identified were confirmed to be within 1 Dalton of the expected mass, and the relative ratios of free:adduct protein were used to quantify the percentage of protein bound by the compound. […]

% CAF @ 60 min | Structure (SMILES)
75% | C=CC(=O)N1[C@H](C)CN(c2nc(=O)n3c4c(c(-c5ccc(F)c6[nH]c(=O)[nH]c56)c(C(F)(F)F)cc24)SC[C@@H](OC)C3)C[C@@H]1C [Example 1, (3S)-8-((3S,5R)-4-acryloyl-3,5-dimethylpiperazin-1-yl)-11-(7-fluoro-2-oxo-2,3-dihydro-1H-benzo[d]imidazol-4-yl)-3-methoxy-10-(trifluoromethyl)-3,4-dihydro-2H,6H-[1,4]thiazepino[2,3,4-ij]quinazolin-6-one]

Source: patent US20240383921A1, “AMIDE AND UREA-CONTAINING TRICYCLIC KRAS INHIBITORS” (Erasca, Inc., priority 2021, published 2024)
